# Earlier results in US9808437B2, “Monounsaturated fatty acid compositions and use for treating atherosclerosis” (BURKE & BOYER NYC, priority 2014, dated 2017).
# System: ApoE-deficient mice
# Conditions: 20 mg/kg/day; control 21.9 ± 2.9; P<0.05
smiles,measurement,value
CC(C)c1nc(N(C)S(C)(=O)=O)nc(-c2ccc(F)cc2)c1/C=C/[C@@H](O)C[C@@H](O)CC(=O)O [Rosuvastatin],Aortic Lesion,11.9 ± 1.9 %
